Experimental data reported in ChEMBL document CHEMBL5528023, “Discovery of a CB2 and 5-HT1A receptor dual agonist for the treatment of depression and anxiety” (Eur J Med Chem, 2024).
Values after ≈ are worked out from the molar mass of the structure shown. Active and inactive are the calls of the source. No cut-off for these calls is given here.

Columns and labels:
Cannabinoid receptor 1 [1] = target: T1, Cannabinoid receptor 1 (Homo sapiens, UniProt P21554); assay: Antagonist activity at human CB1 receptor expressed in CHO cells assessed as inhibition of forskolin-stimulated cAMP formation by measuring maximum inhibition preincubated with compound for 10 mins followed by forskolin induction and measured after 30 mins by HTRF analysis relative to control; assay type: functional, cell-based; details: filed as antagonist, time 40.0 min
Cannabinoid receptor 2 [2] = target: T2, Cannabinoid receptor 2 (Homo sapiens, UniProt P34972); assay: Agonist activity at human CB2 receptor expressed in CHO cells assessed as forskolin-stimulated cAMP formation preincubated with compound for 10 mins followed by forskolin induction and measured after 30 mins by HTRF analysis; assay type: functional, cell-based
Cannabinoid receptor 1 [3] = target: T1, Cannabinoid receptor 1; assay: Antagonist activity at human CB1 receptor expressed in CHO cells assessed as inhibition of forskolin-stimulated cAMP formation preincubated with compound for 10 mins followed by forskolin induction and measured after 30 mins by HTRF analysis; assay type: functional, cell-based
Mus musculus [4] = assay: Antidepressant activity in C57BL/6J mouse assessed as reduction in immobility time at 3 to 10 mg/kg, ip administered for 12 days by forced swim test; assay type: functional, organism-based; details: dose 3-10 mg/kg, time 12.0 day
[5] = target: T3, 5-hydroxytryptamine receptor 1A (Homo sapiens, UniProt P08908); assay: Agonist activity at human 5HT1A receptor expressed in HEK293 cells assessed as forskolin-stimulated cAMP formation preincubated with compound for 10 mins followed by forskolin induction and measured after 30 mins by HTRF analysis; assay type: functional, cell-based
T3 sequence (P08908 whole entry): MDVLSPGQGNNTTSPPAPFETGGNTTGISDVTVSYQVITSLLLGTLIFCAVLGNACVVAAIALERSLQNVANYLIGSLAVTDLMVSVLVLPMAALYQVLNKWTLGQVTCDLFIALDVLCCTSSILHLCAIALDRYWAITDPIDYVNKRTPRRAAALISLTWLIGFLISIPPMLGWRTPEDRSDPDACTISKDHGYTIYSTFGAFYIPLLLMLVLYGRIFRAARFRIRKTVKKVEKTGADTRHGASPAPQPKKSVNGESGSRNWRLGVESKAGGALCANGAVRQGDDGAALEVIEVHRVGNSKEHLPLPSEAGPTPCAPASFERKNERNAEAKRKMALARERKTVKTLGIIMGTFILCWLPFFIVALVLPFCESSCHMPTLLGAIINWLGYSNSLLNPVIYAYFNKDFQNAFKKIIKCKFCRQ

Mus musculus [6] = assay: Induction of spontaneous locomotor activity in C57BL/6 mouse at 1 mg/kg, ip measured at 1 hr; assay type: functional, organism-based
Mus musculus [7] = assay: Anxiolytic activity against stress-induced hyperthermia in ICR mouse assessed as reduction in basal core rectal temperature at 1 to 10 mg/kg, ip measured for 60 mins; assay type: functional, organism-based; details: dose 1-10 mg/kg
Mus musculus [8] = assay: Anxiolytic activity against stress-induced hyperthermia in ip dosed ICR mouse assessed as reduction in basal core rectal temperature measured for 60 mins; assay type: functional, organism-based; details: dose 3-10 mg/kg
Mus musculus [9] = assay: Antidepressant activity in C57BL/6J mouse assessed as reduction in immobility time at 1 mg/kg, ip administered for 12 days and measured after 15 mins by forced swim test; assay type: functional, organism-based; details: time 17295.0 min
[10] = Cmax in ICR mouse at 25 mg/kg, po measured upto 8 hrs by LC-MS/MS analysis; assay type: ADME, organism-based; details: in vivo
[11] = AUClast in ICR mouse at 25 mg/kg, po measured upto 8 hrs by LC-MS/MS analysis; assay type: ADME, organism-based; details: in vivo
[12] = target: T4, 5-hydroxytryptamine receptor 1A (Homo sapiens) (UniProt P08908); assay: Agonist activity at human 5HT1A receptor expressed in HEK293 cells assessed as forskolin-stimulated cAMP formation preincubated with compound for 10 mins followed by forskolin induction and measured after 30 mins by HTRF analysis relative to control; assay type: functional, cell-based; details: filed as agonist, time 40.0 min
T4 sequence (whole entry): T3 sequence (P08908 whole entry)

[13] = Cmax in ICR mouse brain at 25 mg/kg, po measured upto 8 hrs by LC-MS/MS analysis; assay type: ADME, organism-based
Mus musculus [14] = assay: Induction of spontaneous locomotor activity in C57BL/6 mouse assessed as distance traveled at 10 mg/kg, ip measured at 1 hr; assay type: functional, organism-based
Mus musculus [15] = assay: Induction of spontaneous locomotor activity in C57BL/6 mouse assessed as distance traveled at 1 to 10 mg/kg, ip administered once per day for 15 days and measured after 1 hr; assay type: functional, organism-based; details: dose 1-10 mg/kg, time 361.0 hrs
Mus musculus [16] = assay: Antidepressant activity in C57BL/6J mouse assessed as reduction in immobility time at 3 to 10 mg/kg, ip administered for 12 days and measured after 15 mins by forced swim test; assay type: functional, organism-based; details: dose 3-10 mg/kg, time 17295.0 min
Mus musculus [17] = assay: Anxiolytic activity against stress-induced hyperthermia in ip dosed ICR mouse assessed as reduction in delta temperature measured for 60 mins; assay type: functional, organism-based; details: dose 1-10 mg/kg
Cannabinoid receptor 2 [18] = target: T2, Cannabinoid receptor 2; assay: Agonist activity at human CB2 receptor expressed in CHO cells assessed as forskolin-stimulated cAMP formation preincubated with compound for 10 mins followed by forskolin induction and measured after 30 mins by HTRF analysis relative to control; assay type: functional, cell-based; details: time 40.0 min
Mus musculus [19] = assay: Antidepressant activity in C57BL/6J mouse assessed as […] at 1 mg/kg, ip administered for 14 days by tail suspension test; assay type: functional, organism-based; details: time 14.0 day
[20] = Tmax in ICR mouse at 25 mg/kg, po measured upto 8 hrs by LC-MS/MS analysis; assay type: ADME, organism-based; details: in vivo
[21] = Toxicity in C57BL/6J mouse assessed as effect on body weight at 1 to 10 mg/kg, ip measured upto 10 days; assay type: organism-based; details: in vivo, 240 h, dose 1-10 mg/kg, time < 10 day
Mus musculus [22] = assay: Induction of spontaneous locomotor activity in C57BL/6 mouse at 3 mg/kg, ip measured at 15 mins; assay type: functional, organism-based
[23] = Half life in ICR mouse at 25 mg/kg, po measured upto 8 hrs by LC-MS/MS analysis; assay type: ADME, organism-based; details: in vivo
Mus musculus [24] = assay: Antidepressant activity in C57BL/6J mouse assessed as reduction in immobility time at 1 mg/kg, ip administered for 12 days by forced swim test; assay type: functional, organism-based; details: time 12.0 day
Mus musculus [25] = assay: Antidepressant activity in C57BL/6J mouse at 1 mg/kg, ip administered for 14 days by tail suspension test; assay type: functional, organism-based; details: time 14.0 day
Cannabinoid receptor 2 [26] = target: T2, Cannabinoid receptor 2; assay: Partial agonist activity at human CB2 receptor expressed in CHO cells assessed as forskolin-stimulated cAMP formation preincubated with compound for 10 mins followed by forskolin induction and measured after 30 mins by HTRF analysis relative to control; assay type: functional, cell-based; details: filed as partial agonist, time 40.0 min
Cannabinoid receptor 2 [27] = target: T2, Cannabinoid receptor 2; assay: Partial agonist activity at human CB2 receptor expressed in CHO cells assessed as forskolin-stimulated cAMP formation preincubated with compound for 10 mins followed by forskolin induction and measured after 30 mins by HTRF analysis; assay type: functional, cell-based
[28] = Solubility of compound in phosphate buffer at pH 6.8 by HPLC analysis; assay type: physicochemical
Cannabinoid receptor 2 [29] = target: T2, Cannabinoid receptor 2; assay: Agonist activity at CB2 receptor (unknown origin); assay type: functional

T1 sequence (P21554 whole entry): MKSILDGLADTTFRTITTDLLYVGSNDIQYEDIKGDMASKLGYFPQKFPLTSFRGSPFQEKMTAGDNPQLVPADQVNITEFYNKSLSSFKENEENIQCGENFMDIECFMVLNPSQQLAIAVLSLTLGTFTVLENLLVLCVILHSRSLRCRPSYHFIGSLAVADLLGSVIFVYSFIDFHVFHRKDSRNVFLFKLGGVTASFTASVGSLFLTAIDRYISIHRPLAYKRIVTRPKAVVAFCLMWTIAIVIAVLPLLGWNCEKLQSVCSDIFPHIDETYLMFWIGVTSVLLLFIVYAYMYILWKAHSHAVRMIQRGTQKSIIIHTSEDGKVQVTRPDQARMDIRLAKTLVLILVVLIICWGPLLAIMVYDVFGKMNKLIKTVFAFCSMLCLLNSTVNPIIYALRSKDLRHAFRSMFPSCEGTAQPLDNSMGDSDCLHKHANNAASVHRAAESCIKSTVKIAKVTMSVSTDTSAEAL
T2 sequence (P34972 whole entry): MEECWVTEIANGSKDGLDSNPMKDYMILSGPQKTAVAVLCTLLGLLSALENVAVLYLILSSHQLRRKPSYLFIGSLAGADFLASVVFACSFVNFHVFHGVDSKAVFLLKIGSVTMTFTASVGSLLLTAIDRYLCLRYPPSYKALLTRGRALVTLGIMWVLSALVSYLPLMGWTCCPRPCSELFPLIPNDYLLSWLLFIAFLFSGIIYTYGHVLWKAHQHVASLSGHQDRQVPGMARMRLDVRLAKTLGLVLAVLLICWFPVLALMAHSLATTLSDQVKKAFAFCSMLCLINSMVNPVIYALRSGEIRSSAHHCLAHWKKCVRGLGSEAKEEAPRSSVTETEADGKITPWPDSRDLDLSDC

Row | Compound | Imax (Cannabinoid receptor 1 [1]) [%] | EC50 (Cannabinoid receptor 2 [2]) [nM] | IC50 (Cannabinoid receptor 1 [3]) [nM] | Cmax [10] [ng/mL] | AUC(0-t) at 8 h [11] [ng·h/mL] | Tmax [20] [h] | half-life [23] [h] | also measured
1 | C=C(C)[C@@H]1CCC(C)=C[C@H]1c1c(O)cc(CCCCC)c(C(=O)NC2CC2)c1O | 88.9 | > 10 | 2300 | – | – | – | – | –
2 | C=C(C)[C@@H]1CCC(C)=C[C@H]1c1c(O)cc(C2CC2)c(C(=O)NC)c1O | – | > 10000 | > 10000 | – | – | – | – | –
3 | C=C(C)[C@@H]1CCC(C)=C[C@H]1c1c(O)cc(C#CC)cc1O | 96.7 | > 10 | 3300 | – | – | – | – | –
4 | C=C(C)[C@@H]1CCC(C)=C[C@H]1c1c(O)cc(C2(CCCC)CC2)c(C(N)=O)c1O | 93.8 | 480 | 3200 | 211 | 545 | 1.3 | 2.5 | Activity (Mus musculus [4]): Active; EC50 [5]: 2700 nM; Activity (Mus musculus [6]): Active; Activity (Mus musculus [7]): Active; Activity (Mus musculus [8]): Dose-Dependent Effect; Activity (Mus musculus [9]): Active; Emax [12]: 101%; Cmax [13]: 217 ng/g; Activity (Mus musculus [14]): inactive; Activity (Mus musculus [15]): Active; Activity (Mus musculus [16]): Active; Activity (Mus musculus [17]): Dose-Dependent Effect; Emax (Cannabinoid receptor 2 [18]): 34.9%; Activity (Mus musculus [19]): inactive; Activity [21]: Non-Toxic; Activity (Mus musculus [22]): Active; Activity (Mus musculus [24]): Active; Activity (Mus musculus [25]): Active
5 | C=C(C)[C@@H]1CCC(C)=C[C@H]1c1c(O)cc(CCCCC)c(C(=O)NCCN(C)C)c1O | – | > 10 | > 10000 | – | – | – | – | –
6 | C=C(C)[C@@H]1CCC(C)=C[C@H]1c1c(O)cc(CCC)cc1O [CANNABIDIVARIN] | 94.9 | > 10 | 5600 | – | – | – | – | –
7 | C=C(C)[C@@H]1CCC(C)=C[C@H]1c1c(O)cc(C2CCCC2)cc1O | – | – | – | 514 | 1080 | 1 | 1.8 | Emax (Cannabinoid receptor 2 [26]): 76.3%; EC50 (Cannabinoid receptor 2 [27]): 113 nM
8 | C=C(C)[C@@H]1CCC(C)=C[C@H]1c1c(O)cc(CCCCC)c(C(=O)NCCCCC)c1O | – | > 10 | > 10000 | – | – | – | – | –
9 | C=C(C)[C@@H]1CCC(C)=C[C@H]1c1c(O)cc(CCCCC)cc1O [CANNABIDIOL] | 88.3 | – | – | 145 | 289 | 0.7 | 4.3 | EC50 [5]: 4200 nM; solubility [28]: 0.04 µg/mL (≈ 0.127 µM); Emax [12]: 64%; Cmax [13]: 239 ng/g
10 | C=C(C)[C@@H]1CCC(C)=C[C@H]1c1c(O)cc(C2CC2)cc1O | 94 | > 10 | 4400 | – | – | – | – | –
11 | Cc1ccc(CC2CN(C(=O)C3C(C)(C)[C@@H]4CC[C@]3(C)C4)N=C2c2ccc(Cl)c(C)c2)cc1 (stereo partly specified) | – | – | – | – | – | – | – | EC50 (Cannabinoid receptor 2 [29]): 190 nM
12 | C=C(C)[C@@H]1CCC(C)=C[C@H]1c1c(O)cc(C2(CCCC)CC2)c(C(=O)N(C)C)c1O | 87.2 | – | 2700 | 62.7 | 115 | 0.7 | 1.7 | Emax (Cannabinoid receptor 2 [26]): 47.2%; EC50 (Cannabinoid receptor 2 [27]): 755 nM
13 | C=C(C)[C@@H]1CCC(C)=C[C@H]1c1c(O)cc(CCCCC)c(C(=O)N(C)C)c1O | 88.9 | – | 6900 | 22.2 | 26.3 | 0.4 | 1.7 | solubility [28]: 3 µg/mL (≈ 7.78 µM); Emax (Cannabinoid receptor 2 [26]): 73.6%; EC50 (Cannabinoid receptor 2 [27]): 1010 nM
